Measured values published in US7049313B2, “ATM inhibitors” (Kudos Pharmaceuticals Ltd., priority 2002, dated 2006).

The molecules below were run against T1, ATM (Homo sapiens, UniProt Q13315) (assay: In vitro ATM inhibition assay (phosphorylation of GSTp53N66 on serine 15)).
T1 construct: ATM protein was immunoprecipitated from HeLa cell nuclear extract; endogenous in cells; host or cells: HeLa cell nuclear extract (immunoprecipitate)
T1 sequence (Q13315 whole entry): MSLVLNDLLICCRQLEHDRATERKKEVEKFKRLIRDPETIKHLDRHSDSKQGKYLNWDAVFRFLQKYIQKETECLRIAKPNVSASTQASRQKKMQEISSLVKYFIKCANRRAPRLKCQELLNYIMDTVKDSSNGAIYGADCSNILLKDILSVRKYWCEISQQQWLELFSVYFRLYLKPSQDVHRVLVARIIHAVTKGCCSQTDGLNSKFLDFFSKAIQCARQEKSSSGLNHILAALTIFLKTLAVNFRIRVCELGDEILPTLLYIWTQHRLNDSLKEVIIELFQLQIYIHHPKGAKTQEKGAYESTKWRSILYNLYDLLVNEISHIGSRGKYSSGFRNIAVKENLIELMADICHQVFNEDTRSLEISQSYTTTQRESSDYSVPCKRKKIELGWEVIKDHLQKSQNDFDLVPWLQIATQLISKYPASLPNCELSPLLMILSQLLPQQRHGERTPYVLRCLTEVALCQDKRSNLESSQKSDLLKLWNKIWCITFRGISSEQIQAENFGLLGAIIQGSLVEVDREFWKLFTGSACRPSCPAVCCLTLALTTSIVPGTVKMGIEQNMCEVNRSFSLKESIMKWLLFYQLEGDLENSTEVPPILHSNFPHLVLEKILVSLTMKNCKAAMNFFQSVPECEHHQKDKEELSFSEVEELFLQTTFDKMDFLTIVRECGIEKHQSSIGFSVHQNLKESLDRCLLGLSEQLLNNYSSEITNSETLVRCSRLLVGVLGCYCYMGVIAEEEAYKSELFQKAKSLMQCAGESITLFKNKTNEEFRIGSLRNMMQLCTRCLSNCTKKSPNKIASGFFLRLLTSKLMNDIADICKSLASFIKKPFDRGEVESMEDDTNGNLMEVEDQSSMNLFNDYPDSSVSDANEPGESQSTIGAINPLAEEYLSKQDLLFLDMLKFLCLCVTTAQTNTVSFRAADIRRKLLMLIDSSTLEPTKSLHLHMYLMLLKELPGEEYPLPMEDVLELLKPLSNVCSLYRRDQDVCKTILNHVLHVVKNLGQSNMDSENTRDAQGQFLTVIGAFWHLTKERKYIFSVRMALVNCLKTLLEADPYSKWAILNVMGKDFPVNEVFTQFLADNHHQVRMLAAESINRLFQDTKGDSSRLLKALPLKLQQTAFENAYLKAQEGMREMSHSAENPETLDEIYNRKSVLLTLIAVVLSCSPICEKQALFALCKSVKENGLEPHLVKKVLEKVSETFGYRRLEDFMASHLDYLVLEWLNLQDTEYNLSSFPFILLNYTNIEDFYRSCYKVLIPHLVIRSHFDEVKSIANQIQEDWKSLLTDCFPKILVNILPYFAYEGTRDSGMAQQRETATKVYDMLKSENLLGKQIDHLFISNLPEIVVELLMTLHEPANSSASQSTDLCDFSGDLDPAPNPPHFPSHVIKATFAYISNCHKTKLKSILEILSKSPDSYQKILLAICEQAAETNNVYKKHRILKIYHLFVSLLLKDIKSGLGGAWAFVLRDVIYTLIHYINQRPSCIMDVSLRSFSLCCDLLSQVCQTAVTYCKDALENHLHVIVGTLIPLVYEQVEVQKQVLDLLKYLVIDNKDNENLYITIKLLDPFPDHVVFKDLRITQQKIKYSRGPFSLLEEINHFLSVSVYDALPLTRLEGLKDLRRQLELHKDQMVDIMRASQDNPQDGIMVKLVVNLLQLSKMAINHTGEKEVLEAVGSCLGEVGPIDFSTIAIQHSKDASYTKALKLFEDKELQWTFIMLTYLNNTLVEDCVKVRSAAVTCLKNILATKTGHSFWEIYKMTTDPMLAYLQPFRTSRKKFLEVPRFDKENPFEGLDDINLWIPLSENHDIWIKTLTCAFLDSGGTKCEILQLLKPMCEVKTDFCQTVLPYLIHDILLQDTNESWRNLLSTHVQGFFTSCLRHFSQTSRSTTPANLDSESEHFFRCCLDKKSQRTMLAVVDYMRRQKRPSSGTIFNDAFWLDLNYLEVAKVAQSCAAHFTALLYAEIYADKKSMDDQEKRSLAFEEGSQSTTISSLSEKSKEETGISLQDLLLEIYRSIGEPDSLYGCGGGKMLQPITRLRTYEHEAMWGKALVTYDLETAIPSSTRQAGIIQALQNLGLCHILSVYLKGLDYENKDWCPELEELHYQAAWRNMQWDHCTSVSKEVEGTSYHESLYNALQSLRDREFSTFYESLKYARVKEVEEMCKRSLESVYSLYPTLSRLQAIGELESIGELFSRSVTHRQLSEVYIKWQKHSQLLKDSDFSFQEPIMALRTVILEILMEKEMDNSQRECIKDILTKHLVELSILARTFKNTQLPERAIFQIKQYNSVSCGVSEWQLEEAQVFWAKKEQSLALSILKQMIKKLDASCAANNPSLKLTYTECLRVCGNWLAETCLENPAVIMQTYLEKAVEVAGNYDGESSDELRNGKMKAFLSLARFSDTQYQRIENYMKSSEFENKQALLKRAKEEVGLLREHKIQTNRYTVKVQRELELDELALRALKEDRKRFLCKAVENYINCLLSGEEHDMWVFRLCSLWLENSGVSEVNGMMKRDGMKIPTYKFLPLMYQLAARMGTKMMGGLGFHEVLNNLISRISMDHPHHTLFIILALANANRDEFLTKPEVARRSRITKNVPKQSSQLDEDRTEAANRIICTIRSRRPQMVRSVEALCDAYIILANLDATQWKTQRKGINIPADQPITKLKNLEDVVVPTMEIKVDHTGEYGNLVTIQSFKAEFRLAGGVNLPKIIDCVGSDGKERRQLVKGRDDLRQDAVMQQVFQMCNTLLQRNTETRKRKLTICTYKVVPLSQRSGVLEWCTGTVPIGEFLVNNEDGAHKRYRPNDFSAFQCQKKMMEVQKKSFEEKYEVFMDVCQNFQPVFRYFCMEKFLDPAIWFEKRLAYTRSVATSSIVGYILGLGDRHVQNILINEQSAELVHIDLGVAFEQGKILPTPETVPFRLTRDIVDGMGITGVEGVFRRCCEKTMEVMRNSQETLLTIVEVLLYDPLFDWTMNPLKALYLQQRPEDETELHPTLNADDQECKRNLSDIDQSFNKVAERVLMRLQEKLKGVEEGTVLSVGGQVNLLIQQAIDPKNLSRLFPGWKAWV
Type: biochemical
Method: In vitro ATM inhibition Assays
In order to assess the inhibitory action of the compounds against ATM in vitro, the following assay was used to determine IC50 values.
ATM protein was immunoprecipitated from HeLa cell nuclear extract using rabbit polyclonal anti-sera raised to the C-terminal ˜500 amino-acid residues of the human ATM protein. The immunoprecipitation was performed according to the methodology described by Banin, S. et al. (1998). 10 μl of immunoprecipitated ATM in Buffer C (50 mM Hepes, pH 7.4, 6 mM MgCl2, 150 mM NaCl, 0.1 mM sodium orthovanadate, 4 mM MnCl2, 0.1 mM dithiothreitol, 10% glycerol) was added to 32.5 μl of buffer C containing 1 μg of the ATM substrate GSTp53N66 in a V-bottomed 96 well polypropylene plate. The GSTp53N66 substrate is the amino terminal 66 amino acid residues of human wild type p53 fused to glutathione S-transferase. ATM phosphorylates p53 on the residue serine 15 (Banin, S. et al. (1998)). Varying concentrations of inhibitor were then added. […] After 10 minutes of incubation at 37° C., the reactions were initiated by the addition of 5 μl of 500 μM Na-ATP. After 1 hour with shaking at 37° C., 150 μl of phosphate buffered saline (PBS) was added to the reaction and the plate centrifuged at 1500 rpm for 10 minutes. 5 μl of the reaction was then transferred to a 96 well opaque white plate containing 45 μl of PBS to allow the GSTp53N66 substrate to bind to the plate wells. The plate was covered and incubated at room temperature for 1 hour with shaking before discarding the contents. The plate wells were washed twice by the addition of PBS prior to the addition of 3% (w/v) bovine serum albumin (BSA) in PBS. The plate was incubated at room temperature for 1 hour with shaking before discarding the contents and washing twice with PBS. To the wells, 50 μl of a 1:10,000 dilution of primary phosphoserine-15 antibody (Cell Signaling Technology, #9284L) in 3% BSA/PBS was added to detect the phosphorylation event on the serine 15 residue of p53 elicited by the ATM kinase. After 1 hour of incubation at room temperature with shaking, the wells were washed four times with PBS prior to the addition of an anti-rabbit HRP conjugated secondary antibody (Pierce, 31462) with shaking for 1 hour at room temperature. The wells were then washed four times with PBS before the addition of chemiluminescence reagent (NEN Renaissance, NEL105). The plate was then shaken briefly, covered with a transparent plate seal and transferred to a TopCount NXT for chemiluminescent counting. Counts per second, following a one second counting time, were recorded for each reaction.
The enzyme activity for each compound is then calculated using the following equation: […]
`Cc1cc(C(=O)Nc2ccc3c(c2)Cc2cccc(-c4cc(=O)cc(N5CCOCC5)o4)c2S3)no1` [Compound 45] showed an IC50 of less than 200 nM. Molecule `O=C(Nc1ccc(-c2cc(=O)cc(N3CCOCC3)o2)c2c1Cc1ccccc1S2)c1ccno1` [Compound 126] has an IC50 of less than 200 nM. For `O=C(CN1CCNCC1)Nc1ccc2c(c1)Cc1cccc(-c3cc(=O)cc(N4CCOCC4)o3)c1S2` [Compound 52], the IC50 was less than 200 nM. For `COCC(=O)Nc1ccc2c(c1)Cc1cccc(-c3cc(=O)cc(N4CCOCC4)o3)c1S2` [Compound 22], the IC50 was less than 200 nM. Work on `O=C(NN1CCOCC1)c1ccc2c(c1)Sc1cccc(-c3cc(=O)cc(N4CCOCC4)o3)c1S2` [Compound 165] yielded an IC50 of less than 200 nM. `Cc1ccoc1C(=O)Nc1ccc(-c2cc(=O)cc(N3CCOCC3)o2)c2c1Cc1ccccc1S2` [Compound 129] was tested, and the IC50 was less than 200 nM. `O=C(CCN1CCCCCC1)Nc1ccc2c(c1)Cc1cccc(-c3cc(=O)cc(N4CCOCC4)o3)c1S2` [Compound 79] showed an IC50 of less than 200 nM. Molecule `C[C@@H]1CN(C(=O)c2ccc3c(c2)Sc2cccc(-c4cc(=O)cc(N5CCOCC5)o4)c2S3)C[C@H](C)O1` [Compound 159] has an IC50 of less than 200 nM. With `O=C(NCCN1CCOCC1)c1ccc2c(c1)Sc1cccc(-c3cc(=O)cc(N4CCOCC4)o3)c1S2` [Compound 177] the IC50 was less than 200 nM. `CCN(CC)CCCNC(=O)c1ccc2c(c1)Sc1cccc(-c3cc(=O)cc(N4CCOCC4)o3)c1S2` [Compound 182] gave an IC50 of less than 200 nM. `O=C(NCC1CCCCC1)c1ccc2c(c1)Sc1cccc(-c3cc(=O)cc(N4CCOCC4)o3)c1S2` [Compound 154] was tested, and the IC50 was less than 200 nM. `O=C(NCCN1CCN(Cc2ccccc2)CC1)c1ccc2c(c1)Sc1cccc(-c3cc(=O)cc(N4CCOCC4)o3)c1S2` [Compound 179] showed an IC50 of less than 200 nM. `O=c1cc(-c2ccc(O)c3c2Cc2ccccc2S3)oc(N2CCOCC2)c1` [Compound 87, 2-(4-Hydroxy-9H-thioxanthen-1yl)-6-morpholin-4-yl-pyran-4-one] was tested, and the IC50 was less than 200 nM. `O=C(CN(CCO)CCO)Nc1ccc2c(c1)Cc1cccc(-c3cc(=O)cc(N4CCOCC4)o3)c1S2` [Compound 54] showed an IC50 of less than 200 nM. `Nc1ccc(-c2cc(=O)cc(N3CCOCC3)o2)c2c1Cc1ccccc1S2` [Compound 106, 2-(1-Amino-9H-thioxanthen-4-yl)-6-morpholin-4-yl-pyran-4-one] gave an IC50 of less than 200 nM. For `COC[C@@H]1CCCN1NC(=O)c1ccc2c(c1)Sc1cccc(-c3cc(=O)cc(N4CCOCC4)o3)c1S2` [Compound 163], the IC50 was less than 200 nM. `CN1CCN(NC(=O)c2ccc3c(c2)Sc2cccc(-c4cc(=O)cc(N5CCOCC5)o4)c2S3)CC1` [Compound 164] gave an IC50 of less than 200 nM. `O=C(CNCC1CCCO1)Nc1ccc2c(c1)Cc1cccc(-c3cc(=O)cc(N4CCOCC4)o3)c1S2` (stereo not drawn) [Compound 68] was tested, and the IC50 was less than 200 nM. With `O=C(O)C(F)(F)C(F)(F)C(=O)Nc1ccc2c(c1)Cc1cccc(-c3cc(=O)cc(N4CCOCC4)o3)c1S2` [Compound 50] the IC50 was less than 200 nM. Work on `O=C(NCCc1cnc[nH]1)c1ccc2c(c1)Sc1cccc(-c3cc(=O)cc(N4CCOCC4)o3)c1S2` [Compound 176] yielded an IC50 of less than 200 nM. With `O=C(CCN1CCCC1)Nc1ccc2c(c1)Cc1cccc(-c3cc(=O)cc(N4CCOCC4)o3)c1S2` [Compound 76] the IC50 was less than 200 nM. Work on `O=c1cc(-c2ccc(OCCNCCO)c3c2Cc2ccccc2S3)oc(N2CCOCC2)c1` [Compound 93] yielded an IC50 of less than 200 nM. `CSc1ncccc1C(=O)Nc1ccc(-c2cc(=O)cc(N3CCOCC3)o2)c2c1Cc1ccccc1S2` [Compound 122] gave an IC50 of less than 200 nM. `O=C(c1ccc2c(c1)Sc1cccc(-c3cc(=O)cc(N4CCOCC4)o3)c1S2)N1CCOCC1` [Compound 160] gave an IC50 of less than 200 nM. Work on `CCNC(=O)c1ccc2c(c1)Sc1cccc(-c3cc(=O)cc(N4CCOCC4)o3)c1S2` [Compound 142] yielded an IC50 of less than 200 nM. Work on `O=C(O)C1CC1C(=O)Nc1ccc2c(c1)Cc1cccc(-c3cc(=O)cc(N4CCOCC4)o3)c1S2` (stereo not drawn) [Compound 49] yielded an IC50 of less than 200 nM. `O=c1cc(-c2ccc(F)c3c2Sc2ccccc2C3)oc(N2CCOCC2)c1` [Compound 17, 2-(1-Fluoro-9H-thioxanthen-4-yl)-6-morpholin-4-yl-pyran-4-one] gave an IC50 of less than 200 nM. Work on `CC(C)(C)OC(=O)N1CCN(CCNC(=O)c2ccc3c(c2)Sc2cccc(-c4cc(=O)cc(N5CCOCC5)o4)c2S3)CC1` [Compound 180] yielded an IC50 of less than 200 nM. Molecule `CCCNC(=O)c1ccc2c(c1)Sc1cccc(-c3cc(=O)cc(N4CCOCC4)o3)c1S2` [Compound 144] has an IC50 of less than 200 nM. `O=c1cc(-c2cccc3c2Sc2ccccc2CC3)oc(N2CCOCC2)c1` [Compound 133, 2-(10,11-Dihydro-dibenzo[b,f]thiepin-4-yl)-6-morpholin-4-yl-pyran-4-one] showed an IC50 of less than 200 nM. `CC1CN(C(=O)c2ccc3c(c2)Sc2cccc(-c4cc(=O)cc(N5CCOCC5)o4)c2S3)CC(C)O1` (stereo not drawn) [Compound 158] was tested, and the IC50 was less than 200 nM. `CC(C)(C)OC(=O)N1c2ccccc2Sc2c(-c3cc(=O)cc(N4CCOCC4)o3)cccc21` [Compound 134, 4-(6-Morpholin-4-yl-4-oxo-4H-pyran-2-yl)-phenothiazine-10-carboxylic acid tert-butyl ester] showed an IC50 of less than 200 nM. For `CNC(=O)c1ccc2c(c1)Sc1cccc(-c3cc(=O)cc(N4CCOCC4)o3)c1S2` [Compound 139], the IC50 was less than 200 nM. For `O=C(NC1CCC1)c1ccc2c(c1)Sc1cccc(-c3cc(=O)cc(N4CCOCC4)o3)c1S2` [Compound 153], the IC50 was less than 200 nM. `O=C(Nc1ccc2c(c1)Cc1cccc(-c3cc(=O)cc(N4CCOCC4)o3)c1S2)c1ccc2c(c1)CCO2` [Compound 43] showed an IC50 of less than 200 nM. Work on `COc1ccc(CNCC(=O)Nc2ccc3c(c2)Cc2cccc(-c4cc(=O)cc(N5CCOCC5)o4)c2S3)cc1` [Compound 63] yielded an IC50 of less than 200 nM. Molecule `O=C(Nc1ccc2c(c1)Cc1cccc(-c3cc(=O)cc(N4CCOCC4)o3)c1S2)C1CCC1` [Compound 32] has an IC50 of less than 200 nM. `CN1CCN(CC(=O)Nc2ccc3c(c2)Cc2cccc(-c4cc(=O)cc(N5CCOCC5)o4)c2S3)CC1` [Compound 53] showed an IC50 of less than 200 nM. `O=C(Nc1ccc(-c2cc(=O)cc(N3CCOCC3)o2)c2c1Cc1ccccc1S2)c1ccc2c(c1)OCO2` [Compound 115] was tested, and the IC50 was less than 200 nM. `COC(=O)c1ccc2c(c1)Sc1cccc(-c3cc(=O)cc(N4CCOCC4)o3)c1S2` [Compound 137, 6-(6-Morpholin-4-yl-4-oxo-4H-pyran-2-yl)-thianthrene-2-carboxylic acid methyl ester] showed an IC50 of less than 200 nM. `Cn1nc(O)cc1C(=O)Nc1ccc2c(c1)Cc1cccc(-c3cc(=O)cc(N4CCOCC4)o3)c1S2` [Compound 35] showed an IC50 of less than 200 nM. `Cc1noc(C)c1C(=O)Nc1ccc2c(c1)Cc1cccc(-c3cc(=O)cc(N4CCOCC4)o3)c1S2` [Compound 33] showed an IC50 of less than 200 nM. With `CCN(CC)CCC(=O)Nc1ccc2c(c1)Cc1cccc(-c3cc(=O)cc(N4CCOCC4)o3)c1S2` [Compound 83] the IC50 was less than 200 nM. `O=C(CNCCO)Nc1ccc2c(c1)Cc1cccc(-c3cc(=O)cc(N4CCOCC4)o3)c1S2` [Compound 56] gave an IC50 of less than 200 nM. `O=C(Nc1ccc(-c2cc(=O)cc(N3CCOCC3)o2)c2c1Cc1ccccc1S2)c1ccc2nsnc2c1` [Compound 112] showed an IC50 of less than 200 nM. `COc1cc(C(=O)Nc2ccc3c(c2)Cc2cccc(-c4cc(=O)cc(N5CCOCC5)o4)c2S3)cc(OC)c1OC` [Compound 38] was tested, and the IC50 was less than 200 nM. `CCN(CC)CCNC(=O)c1ccc2c(c1)Sc1cccc(-c3cc(=O)cc(N4CCOCC4)o3)c1S2` [Compound 181] showed an IC50 of less than 200 nM. `O=c1cc(-c2cccc3c2Sc2ccccc2N3)oc(N2CCOCC2)c1` [Compound 135, 2-Morpholin-4-yl-6-(10H-phenothiazin-4-yl)-pyran-4-one] showed an IC50 of less than 200 nM.
